The results in this text go back to ChEMBL document CHEMBL1144811, “Design and synthesis of morpholine derivatives. SAR for dual serotonin & noradrenaline reuptake inhibition” (Bioorg Med Chem Lett, 2008).

The target of series [1] is T1, Sodium-dependent dopamine transporter (Homo sapiens, UniProt Q01959).
Description: (§1) Inhibition of [3H]dopamine reuptake at human DAT expressed in HEK293 cells
Series [2] deals with Sodium-dependent noradrenaline transporter (Homo sapiens, UniProt P23975). As to the kind of experiment: biochemical.
Description: Inhibition of [3H]nisoxetine reuptake at human NET expressed in HEK293 cells
Series [3] addresses Sodium-dependent serotonin transporter (Homo sapiens, UniProt P31645). The series can be described thus: biochemical.
Description: Inhibition of [3H]citalopram uptake at human 5HTT expressed in HEK293 cells
Another series addresses Cytochrome P450 2C19 (Homo sapiens, UniProt P33261). The series can be described thus: Inhibition of CYP2C19. Format: ADME.
For series [4], the target named is T2, Histamine H1 receptor (Homo sapiens, UniProt P35367). As to the kind of experiment: Inhibition of histamine H1 receptor at 10 uM.
The subject of series [5] is Rattus norvegicus. The series can be described thus: Increase in 5-hydroxytryptamine level in prefrontal cortex interstitial fluid of rat at 10 mg/kg, sc. Format: functional. Particulars: route subcutaneous.
Series [6] has as its system MDCK. The series can be described thus: Permeability from basolateral to apical side of P-gp expressing MDCK cell membrane at 10 uM. Format: ADME, cell-based, Canis lupus familiaris. The settings on record: dog.
In series [7] the target is Sodium-dependent serotonin transporter (Rattus norvegicus, UniProt P31652). As to the kind of experiment: Inhibition of rat 5HTT expressed in HEK293 cells. Format: cell-based.
The subject of series [8] is Rattus norvegicus. The series can be described thus: Increase in noradrenaline level in prefrontal cortex interstitial fluid of rat at 10 mg/kg, sc. It is filed as functional. Particulars: route subcutaneous.
A short description of series [9]: Inhibition of calcium channel L type at diltiazem site.
The test system of series [10] is Caco-2. The series can be described thus: Permeability from basolateral to apical side of human Caco-2 cell membrane at 10 uM. It is filed as ADME, cell-based. Particulars: caco-2, 10 µM. (Caco-2 cells form a polarised layer with tight junctions and transporters.)
Series [11] deals with Caco-2. As to the kind of experiment: Permeability from apical to basolateral side of human Caco-2 cell membrane at 10 uM. Format: ADME, cell-based. Particulars: caco-2, 10 µM.
Series [12] has as its system MDCK. The series can be described thus: Permeability from apical to basolateral side of P-gp expressing MDCK cell membrane at 10 uM. It is filed as ADME, cell-based, Canis lupus familiaris. Particulars: dog.
The nature of series [13]: Inhibition of sodium channel site 2.
Another series addresses Cytochrome P450 3A4 (Homo sapiens, UniProt P08684). The series can be described thus: Inhibition of CYP3A4. It is filed as ADME.
In a further series the target is Cytochrome P450 2C9 (Homo sapiens, UniProt P11712). As to the kind of experiment: Inhibition of CYP2C9. It is filed as ADME.
Series [14] is described as follows: Metabolic stability in human liver microsomes. Format: ADME, Microsome. In general terms: Liver microsomes are vesicles of endoplasmic reticulum, rich in cytochrome P450 enzymes.
In series [15] the target is Voltage-gated inwardly rectifying potassium channel KCNH2 (Homo sapiens, UniProt Q12809). As to the kind of experiment: Displacement of [3H]dofetilide from human ERG. Background: Loss of bound radioactivity is the signal in a displacement assay; it reports binding, not function.
Series [16] can be described thus: Metabolic stability in human hepatocytes. It is filed as ADME, cell-based, Liver, Hepatocyte.
The target of another series is T3, Cytochrome P450 1A2 (Homo sapiens, UniProt P05177).
T3 sequence (P05177 whole entry): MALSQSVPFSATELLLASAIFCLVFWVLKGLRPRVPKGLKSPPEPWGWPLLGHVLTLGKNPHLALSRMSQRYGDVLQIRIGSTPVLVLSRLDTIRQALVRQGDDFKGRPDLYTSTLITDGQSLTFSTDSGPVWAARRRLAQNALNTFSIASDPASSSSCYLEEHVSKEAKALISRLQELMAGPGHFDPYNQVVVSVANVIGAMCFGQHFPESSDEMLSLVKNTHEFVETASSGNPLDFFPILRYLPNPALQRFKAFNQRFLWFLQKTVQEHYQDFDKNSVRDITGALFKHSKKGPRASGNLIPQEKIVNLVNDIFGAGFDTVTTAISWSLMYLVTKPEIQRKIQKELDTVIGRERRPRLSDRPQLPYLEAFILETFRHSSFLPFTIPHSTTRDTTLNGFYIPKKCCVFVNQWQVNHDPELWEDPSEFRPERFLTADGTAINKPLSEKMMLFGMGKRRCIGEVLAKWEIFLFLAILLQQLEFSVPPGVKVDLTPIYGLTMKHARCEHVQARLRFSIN
The series can be described thus: Inhibition of CYP1A2. It is filed as ADME.

The target of a further series is Cytochrome P450 2D6 (Homo sapiens, UniProt P10635). The series can be described thus: Inhibition of CYP2D6. It is filed as ADME.
For series [17], the target named is Norepinephrine transporter (Rattus norvegicus, UniProt Q9WTR4). As to the kind of experiment: Inhibition of rat NET expressed in HEK293 cells. It is filed as cell-based.
Series [18] concerns the target T2, Histamine H1 receptor.
Series [19] has as its target T1, Sodium-dependent dopamine transporter. The settings on record: hek293.
Description: as §1
Series [20] addresses T2, Histamine H1 receptor. As to the kind of experiment: Inhibition of histamine H1 receptor.
The nature of series [21]: Partition coefficient, log D at pH 7.4. It is filed as physicochemical. The settings on record: octanol/water.
The nature of series [22]: pKa, dissociation constant of the compound. It is filed as physicochemical.

Structures are written as SMILES. Active and inactive are the calls of the source. No cut-off for these calls is given here.

Sodium-dependent serotonin transporter (Homo sapiens, UniProt P31645), sequence (P31645 whole entry): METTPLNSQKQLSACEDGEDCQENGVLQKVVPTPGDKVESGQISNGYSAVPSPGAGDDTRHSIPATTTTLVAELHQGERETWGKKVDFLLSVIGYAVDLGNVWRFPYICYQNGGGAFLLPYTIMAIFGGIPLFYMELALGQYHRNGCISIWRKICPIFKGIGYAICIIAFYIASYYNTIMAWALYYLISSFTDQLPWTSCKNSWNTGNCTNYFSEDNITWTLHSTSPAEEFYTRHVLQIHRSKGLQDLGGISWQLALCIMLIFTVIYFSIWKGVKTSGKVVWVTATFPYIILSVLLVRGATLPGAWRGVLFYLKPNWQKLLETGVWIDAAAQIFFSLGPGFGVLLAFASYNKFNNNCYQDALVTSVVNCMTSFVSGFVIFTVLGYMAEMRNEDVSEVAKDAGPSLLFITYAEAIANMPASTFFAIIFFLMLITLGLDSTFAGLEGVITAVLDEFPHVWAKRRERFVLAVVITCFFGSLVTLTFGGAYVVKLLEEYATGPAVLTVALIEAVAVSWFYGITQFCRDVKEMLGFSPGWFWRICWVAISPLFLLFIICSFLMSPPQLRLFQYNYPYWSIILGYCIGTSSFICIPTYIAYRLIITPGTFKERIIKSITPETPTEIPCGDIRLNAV
T2 sequence (P35367 whole entry): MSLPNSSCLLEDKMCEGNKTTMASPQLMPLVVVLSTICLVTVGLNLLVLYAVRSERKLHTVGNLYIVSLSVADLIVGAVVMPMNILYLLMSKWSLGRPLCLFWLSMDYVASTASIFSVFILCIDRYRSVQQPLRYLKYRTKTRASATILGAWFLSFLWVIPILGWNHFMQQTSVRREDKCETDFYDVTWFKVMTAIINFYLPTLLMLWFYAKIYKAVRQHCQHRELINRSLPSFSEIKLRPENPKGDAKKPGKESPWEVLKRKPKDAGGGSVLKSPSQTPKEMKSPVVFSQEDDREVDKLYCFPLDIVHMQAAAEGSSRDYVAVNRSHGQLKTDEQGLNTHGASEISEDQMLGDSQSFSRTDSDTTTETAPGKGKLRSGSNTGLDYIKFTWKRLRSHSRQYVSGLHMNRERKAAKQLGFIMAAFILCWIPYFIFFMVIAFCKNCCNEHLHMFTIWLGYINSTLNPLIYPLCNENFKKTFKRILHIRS
T1 sequence (Q01959 whole entry): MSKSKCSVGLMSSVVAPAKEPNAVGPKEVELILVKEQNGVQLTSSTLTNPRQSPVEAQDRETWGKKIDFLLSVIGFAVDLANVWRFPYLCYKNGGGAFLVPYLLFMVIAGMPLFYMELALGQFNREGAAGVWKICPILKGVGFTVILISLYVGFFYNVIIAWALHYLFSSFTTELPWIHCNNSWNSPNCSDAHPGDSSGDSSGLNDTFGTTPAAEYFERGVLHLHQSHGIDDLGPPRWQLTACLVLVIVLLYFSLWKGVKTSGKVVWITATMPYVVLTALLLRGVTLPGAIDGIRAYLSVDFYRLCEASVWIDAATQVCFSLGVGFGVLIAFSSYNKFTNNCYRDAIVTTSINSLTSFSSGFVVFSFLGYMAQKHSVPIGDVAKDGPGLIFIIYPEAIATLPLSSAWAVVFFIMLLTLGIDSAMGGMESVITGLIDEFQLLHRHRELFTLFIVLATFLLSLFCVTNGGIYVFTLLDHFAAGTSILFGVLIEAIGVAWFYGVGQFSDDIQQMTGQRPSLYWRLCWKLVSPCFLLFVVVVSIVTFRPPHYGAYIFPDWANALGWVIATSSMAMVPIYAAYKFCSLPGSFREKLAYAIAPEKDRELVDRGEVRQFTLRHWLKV
Sodium-dependent noradrenaline transporter, sequence (P23975 whole entry): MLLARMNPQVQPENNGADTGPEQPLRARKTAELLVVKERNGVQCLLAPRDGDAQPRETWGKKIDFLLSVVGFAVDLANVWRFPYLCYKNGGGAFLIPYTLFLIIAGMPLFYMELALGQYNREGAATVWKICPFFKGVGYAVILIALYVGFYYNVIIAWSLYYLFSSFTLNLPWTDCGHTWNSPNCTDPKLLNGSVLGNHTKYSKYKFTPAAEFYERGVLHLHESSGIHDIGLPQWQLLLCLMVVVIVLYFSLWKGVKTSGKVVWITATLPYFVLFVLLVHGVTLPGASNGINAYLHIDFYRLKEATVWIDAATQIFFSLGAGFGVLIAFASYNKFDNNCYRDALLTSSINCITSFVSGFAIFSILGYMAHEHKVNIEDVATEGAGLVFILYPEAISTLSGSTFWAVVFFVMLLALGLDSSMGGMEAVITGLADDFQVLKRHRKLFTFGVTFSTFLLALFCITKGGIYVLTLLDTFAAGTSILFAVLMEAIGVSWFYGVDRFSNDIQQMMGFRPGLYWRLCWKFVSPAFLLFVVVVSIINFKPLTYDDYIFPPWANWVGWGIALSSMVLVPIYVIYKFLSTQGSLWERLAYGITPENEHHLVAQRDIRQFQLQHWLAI
Cytochrome P450 2C19, sequence (P33261 whole entry): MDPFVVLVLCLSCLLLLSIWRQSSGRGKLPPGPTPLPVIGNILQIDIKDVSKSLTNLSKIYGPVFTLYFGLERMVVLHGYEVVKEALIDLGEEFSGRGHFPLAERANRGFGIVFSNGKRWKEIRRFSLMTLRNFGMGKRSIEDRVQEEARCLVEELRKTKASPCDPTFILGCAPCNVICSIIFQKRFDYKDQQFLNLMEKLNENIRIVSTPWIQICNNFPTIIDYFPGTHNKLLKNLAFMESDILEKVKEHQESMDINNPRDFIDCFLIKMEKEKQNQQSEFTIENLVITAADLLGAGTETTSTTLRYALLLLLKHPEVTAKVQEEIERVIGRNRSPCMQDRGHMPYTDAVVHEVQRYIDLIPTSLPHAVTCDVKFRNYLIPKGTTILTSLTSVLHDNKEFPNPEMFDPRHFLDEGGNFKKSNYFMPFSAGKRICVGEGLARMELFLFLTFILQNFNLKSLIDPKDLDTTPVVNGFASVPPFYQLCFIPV
Voltage-gated inwardly rectifying potassium channel KCNH2, sequence (Q12809 whole entry): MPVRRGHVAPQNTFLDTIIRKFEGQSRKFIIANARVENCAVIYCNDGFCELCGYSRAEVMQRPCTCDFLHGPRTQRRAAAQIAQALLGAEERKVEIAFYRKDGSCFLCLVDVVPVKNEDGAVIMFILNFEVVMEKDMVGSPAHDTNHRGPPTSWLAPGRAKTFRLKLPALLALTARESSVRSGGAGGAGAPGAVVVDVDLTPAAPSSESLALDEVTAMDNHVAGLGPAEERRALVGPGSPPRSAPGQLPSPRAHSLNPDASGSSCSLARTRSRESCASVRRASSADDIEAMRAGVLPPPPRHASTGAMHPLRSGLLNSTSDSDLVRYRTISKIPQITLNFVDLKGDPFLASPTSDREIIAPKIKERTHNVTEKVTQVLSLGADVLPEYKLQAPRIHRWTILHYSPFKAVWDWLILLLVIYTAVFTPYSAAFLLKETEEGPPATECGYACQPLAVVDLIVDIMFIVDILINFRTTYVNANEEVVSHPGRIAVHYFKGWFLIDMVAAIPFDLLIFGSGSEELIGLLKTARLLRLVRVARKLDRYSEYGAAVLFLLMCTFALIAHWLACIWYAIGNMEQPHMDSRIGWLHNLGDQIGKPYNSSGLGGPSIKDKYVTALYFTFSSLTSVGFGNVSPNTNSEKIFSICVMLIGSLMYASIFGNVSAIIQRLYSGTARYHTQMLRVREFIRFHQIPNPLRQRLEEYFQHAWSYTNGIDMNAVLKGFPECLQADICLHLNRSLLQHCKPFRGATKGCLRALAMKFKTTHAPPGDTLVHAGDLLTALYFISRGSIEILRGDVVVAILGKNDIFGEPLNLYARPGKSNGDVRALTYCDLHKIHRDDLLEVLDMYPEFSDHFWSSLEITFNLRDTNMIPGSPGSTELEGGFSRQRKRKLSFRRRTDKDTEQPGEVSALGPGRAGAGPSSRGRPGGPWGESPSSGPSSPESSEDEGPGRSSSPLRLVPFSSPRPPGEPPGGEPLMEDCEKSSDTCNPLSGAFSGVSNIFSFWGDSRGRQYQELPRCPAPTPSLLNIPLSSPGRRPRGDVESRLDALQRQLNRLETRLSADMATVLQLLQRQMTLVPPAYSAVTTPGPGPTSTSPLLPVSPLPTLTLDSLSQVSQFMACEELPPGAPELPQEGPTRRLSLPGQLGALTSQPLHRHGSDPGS
Cytochrome P450 3A4, sequence (P08684 whole entry): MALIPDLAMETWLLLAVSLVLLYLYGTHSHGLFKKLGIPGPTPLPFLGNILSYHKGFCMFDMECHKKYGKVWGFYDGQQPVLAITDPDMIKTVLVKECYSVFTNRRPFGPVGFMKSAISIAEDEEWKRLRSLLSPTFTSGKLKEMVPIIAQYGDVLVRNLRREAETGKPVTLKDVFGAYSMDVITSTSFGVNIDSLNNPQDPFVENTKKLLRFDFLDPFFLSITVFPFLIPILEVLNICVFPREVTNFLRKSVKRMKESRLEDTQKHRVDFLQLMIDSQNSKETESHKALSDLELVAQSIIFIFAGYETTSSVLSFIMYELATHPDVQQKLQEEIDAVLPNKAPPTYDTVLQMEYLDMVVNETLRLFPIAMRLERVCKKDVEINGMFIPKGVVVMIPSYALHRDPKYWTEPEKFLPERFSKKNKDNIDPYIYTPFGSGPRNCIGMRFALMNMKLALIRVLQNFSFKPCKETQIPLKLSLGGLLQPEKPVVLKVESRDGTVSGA
Cytochrome P450 2C9, sequence (P11712 whole entry): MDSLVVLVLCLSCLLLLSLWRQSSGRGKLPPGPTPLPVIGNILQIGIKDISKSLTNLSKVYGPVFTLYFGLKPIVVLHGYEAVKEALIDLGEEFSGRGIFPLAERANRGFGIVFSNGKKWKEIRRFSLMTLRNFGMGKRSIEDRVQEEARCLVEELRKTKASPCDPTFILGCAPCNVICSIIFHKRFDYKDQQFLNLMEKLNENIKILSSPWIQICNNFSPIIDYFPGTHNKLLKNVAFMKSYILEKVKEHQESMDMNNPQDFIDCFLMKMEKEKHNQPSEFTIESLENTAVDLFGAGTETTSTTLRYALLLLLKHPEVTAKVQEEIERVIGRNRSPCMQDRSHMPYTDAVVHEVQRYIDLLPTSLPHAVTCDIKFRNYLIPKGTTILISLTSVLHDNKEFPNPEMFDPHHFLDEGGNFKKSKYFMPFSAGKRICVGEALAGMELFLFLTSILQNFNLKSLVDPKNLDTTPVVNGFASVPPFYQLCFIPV

The term Ki denotes a measure of affinity in units of concentration, obtained from inhibition or displacement. For `COc1ccc(O[C@@H](c2ccccc2)[C@@H]2CNCCO2)c(Cl)c1`, the results for the Ki in series [1], in series [2] and in [3] were 1090 nM, 28 nM and 96 nM, respectively.

For the molecule `Clc1cccc(O[C@@H](c2ccccc2)[C@@H]2CNCCO2)c1Cl`, the inhibition constant (Ki) stood at 420 nM in series [1], 17 nM in series [2] and 100 nM in [3].

In general, IC50 refers to the midpoint of a concentration-inhibition curve. Lower therefore signals greater potency. One may read the inhibition as the relative decrease from the control value, in per cent. Usually half-life stands for how long it takes for the measured level to halve. As for `COc1cc(Cl)ccc1O[C@@H](c1ccccc1)[C@@H]1CNCCO1`, the IC50 at Cytochrome P450 2C19, against Cytochrome P450 3A4, on Cytochrome P450 2C9, at Cytochrome P450 1A2 and against Cytochrome P450 2D6 was greater than 29000 nM throughout. Also, the inhibition on Histamine H1 receptor [4] is less than 20%. Further, the Activity with Rattus norvegicus [5] amounted to 160%; with Rattus norvegicus [8] it was 170%. In addition, the Papp in the series with MDCK [6] is reported as 35 10^-6/cm; in the series on Caco-2 [10], 16 10^-6/cm; in the series with Caco-2 [11], 18 10^-6/cm; with MDCK [12], 22 10^-6/cm. Besides, the Ki in [7] came to 59 nM; in series [9], 2000 nM; in series [13], 1200 nM; in [1] it was 1570 nM; in series [15], 3300 nM; in [17] it was 6 nM. The half-life in series [14] was greater than 2 h; in [16] it was 3.1 h.

For the molecule `COc1cc(Cl)ccc1O[C@@H](c1ccc(F)cc1)[C@@H]1CNCCO1`, the Ki in [2] stood at 29 nM; in series [3], 62 nM.

Consider `Fc1ccc(O[C@H](c2ccccc2)[C@H]2CNCCO2)c(Cl)c1`, for which the inhibitory constant (Ki) in series [1] turned out to be 760 nM; at Histamine H1 receptor [18] it was 10 nM.

As to `CCOc1c(Cl)cccc1OC(c1ccccc1)C1CNCCO1` (racemic; syn), the Ki is greater than 10000 nM in series [19], 275 nM in [2] and 240 nM in series [3].

In the case of `Fc1ccc(O[C@@H](c2ccccc2)[C@@H]2CNCCO2)c(Cl)c1`, the affinity in series [1], expressed as Ki, was 1170 nM. The outcome at Histamine H1 receptor [20] was inactive.

In the case of `CCOc1cc(Cl)ccc1OC(c1ccccc1)C1CNCCO1` (racemic; anti), the figures for the Ki in series [1], in series [2] and in series [3] were 1670 nM, 390 nM and 220 nM, respectively.

As to `COc1cc(Cl)ccc1O[C@@H](c1ccccc1C)[C@@H]1CNCCO1`, the Ki in series [2] was 84 nM; in [3], 70 nM.

In the case of `COc1cc(F)ccc1O[C@H](c1ccccc1)[C@H]1CNCCO1`, the Ki in series [2] stood at 610 nM; on Histamine H1 receptor [18], 10 nM; in series [3], 22 nM.

The molecule `COc1cc(Br)ccc1O[C@@H](c1ccccc1)[C@@H]1CNCCO1` had a Ki in [3] of 30 nM.

For the molecule `c1ccc([C@H](Oc2cccc3c2OCC3)[C@@H]2CNCCO2)cc1`, the outcome at Histamine H1 receptor [20] was inactive. Moreover, the values for the inhibitory constant (Ki) in series [2] and in series [3] were 12 nM and 1800 nM, respectively.

Take `c1ccc([C@@H](Oc2cccc3c2OCC3)[C@H]2CNCCO2)cc1`: the Ki was found to be 5750 nM in [1], 350 nM in [2], 10 nM on Histamine H1 receptor [18] and 20 nM in series [3].

What is called logD is the decadic logarithm of the distribution of all forms, ionised or not, between an organic phase and buffer at a given pH. The low end stands for a more hydrophilic compound, the high end for a more lipophilic compound. Usually pKa stands for the negative logarithm of the acid dissociation constant. In [21], `COc1cc(Cl)ccc1OC(c1ccccc1)C1CNCCO1` (racemic; syn) had a pH-dependent lipophilicity (logD) of 1.9. In series [22], this molecule came in with a pKa of 7.7. Further, in [1], the Ki turned out to be 5050 nM.

For the molecule `COc1cc(Cl)ccc1O[C@@H](c1cccc(F)c1)[C@@H]1CNCCO1`, the figures for the Ki in [1], in series [2] and in [3] were 10800 nM, 9 nM and 58 nM, respectively.

In the case of `COc1cc(F)ccc1O[C@@H](c1ccccc1)[C@@H]1CNCCO1`, the Ki in series [1] came out at 3080 nM; in series [2], 6 nM; in [3], 740 nM. Besides, the result at Histamine H1 receptor [20] was inactive.

With `COc1cc(C#N)ccc1O[C@@H](c1ccccc1)[C@@H]1CNCCO1`, the inhibition constant Ki in [2] worked out at 210 nM; in series [3], 110 nM.

Take `COc1cc(Cl)ccc1O[C@@H](c1ccccc1F)[C@@H]1CNCCO1`: the inhibition constant (Ki) in series [2] is 22 nM; in series [3], 70 nM.

As for `Cc1cc(F)ccc1O[C@H](c1ccccc1)[C@H]1CNCCO1`, the inhibition constant (Ki) in series [1] was 950 nM; in [2], 860 nM; at Histamine H1 receptor [18], 10 nM; in series [3], 34 nM.

`COc1cc(Cl)ccc1OC(c1ccccc1)C1CNCCO1` (racemic; anti) yielded a Ki in [1] of 2200 nM.

On to `COc1cc(C(F)(F)F)ccc1O[C@@H](c1ccccc1)[C@@H]1CNCCO1`, for which the inhibitory constant (Ki) in [2] stood at 160 nM; in [3] it was 41 nM.

On to `Cc1cc(F)ccc1O[C@@H](c1ccccc1)[C@@H]1CNCCO1`, for which the Ki in series [1] worked out at 1250 nM; in [2] it was 18 nM; in series [3], 185 nM. Moreover, the result at Histamine H1 receptor [20] was inactive.

`COc1cc(Cl)ccc1O[C@H](c1ccccc1)[C@H]1CNCCO1`: the inhibitory constant (Ki) in series [1] stood at 1790 nM; at Histamine H1 receptor [18], 26 nM.

For the molecule `CCOc1cc(Cl)ccc1OC(c1ccccc1)C1CNCCO1` (racemic; syn), the Ki in series [1] was determined as 1540 nM; in series [2], 15 nM; in series [3], 60 nM.

For `Fc1cccc(O[C@@H](c2ccccc2)[C@@H]2CNCCO2)c1F`, the Ki in series [1] turned out to be 2600 nM; in series [2], 10 nM; in series [3], 3390 nM. Further, the result on Histamine H1 receptor [20] was inactive.

In the case of `COc1cc(Cl)ccc1O[C@@H](c1cccc(C)c1)[C@@H]1CNCCO1`, the Ki in series [2] worked out at 16 nM; in series [3], 69 nM.

Consider `CCOc1c(Cl)cccc1OC(c1ccccc1)C1CNCCO1` (racemic; anti), for which the figures for the Ki in series [1], in [2] and in [3] were greater than 10000 nM, 1490 nM and 340 nM, respectively.

Turning to `Fc1cccc(O[C@H](c2ccccc2)[C@H]2CNCCO2)c1F`, the Ki in series [1] came to 380 nM; in series [2], 130 nM; on Histamine H1 receptor [18], 10 nM; in series [3], 12 nM.

In the case of `COc1cc(Cl)ccc1O[C@@H](c1ccc(C)cc1)[C@@H]1CNCCO1`, the inhibitory constant (Ki) is 1650 nM in series [1], 180 nM in [2] and 88 nM in [3].
